Data on 2 compounds can be found in patent US4544629A, “Receptor-based histamine assay” (Minnesota Mining and Manufacturing Company, priority 1982, dated 1985).

Counter-ions that a name gives are not always drawn. Like-named read-outs stand apart in the source and are kept apart here.

Experiment [1] deals with histamine receptor. The procedure: (§1) Samples of 200 microliters of heat-inactivated fetal calf sera were added to each well of a polystyrene microtiter plate as a protein pretreatment and the seracontaining plates were incubated at 25° C. for 15 minutes. Each well was then washed twice with phosphate-buffered saline. To each well was added 200 microliters of 1 millimolar trinitrobenzene sulfonate in phosphate-buffered saline, and the plate was incubated at 37° C. for thirty minutes. Each well was then washed three times with phosphate-buffered saline. To each well was then added 200 microliters of histamine receptor in phosphate buffered saline prepared according to the procedure of EXAMPLE 1. The plate was then incubated at 25° C. for thirty minutes. After the incubation, each well was washed three times with phosphate-buffered saline and the plates were allowed to air dry at 25° C. for about 16 hours, then stored at 4° C.

The test system of experiment [2] is histamine receptors attached to a solid phase. The conditions noted are these: anticoagulated human whole blood. The procedure: (§2) To determine the sensitivity of the histamine assay, an inhibition assay was performed using whole cells with histamine in 0.01M phosphate-bufferedsaline as the inhibitor. The histamine was incubated with 1×10^6cells for 30 minutes. The unbound inhibitor was washed out and the histamine-enzyme added and incubated 30 minutes. After washing out the unbound indicator, the enzyme substrate, p-nitrophenyl phosphate was added and incubated for 1 hour at 37° C. The enzymatic reaction was stopped with 1N aqueous sodium hydroxide and the absorbance at A410 read from a Beckman spectrophotometer. The amount of product formed was inversely proportional to the amount of free histamine bound to the cells.
(§3) Cell surface histamine receptors prepared as described in EXAMPLE 1 were affixed to microtiter plate wells by protein pretreatment (see EXAMPLE 2) of the plate followed by surface activation with 1 millimolar trinitrobenzene sulfonate as described in EXAMPLE 2.
(§4) The various quantities of histamine in phosphate-buffered saline were incubated in several replications with the receptor. […] After washing out the unbound indicator, para-nitrophenyl phosphate was added and incubated for 1 hour at 37° C. The enzymatic reaction was stopped with 1N aqueous sodium hydroxide and the absorbance at A410 read from a Beckman spectrophotometer.
Using the method described in EXAMPLES 6 and 7, the sensitivity of the assay to histamine dissolved in anticoagulated human whole blood was measured.

The test system of experiment [3] is histamine receptor on whole cells. The conditions noted are these: 1×10^6 cells. The procedure: as §2
Experiment [4] relates to histamine receptor. The settings on record: read at 510 nm, blank .400, background .095. The procedure: (§5) In order to free the histamine receptors from the cell wall, the cells were washed three times in phosphate buffered saline, resuspended at a concentration of 1×10^7 cells per ml in phosphate-buffered saline and either stored at 4° C. for three days or incubated at 46° C. for 90 minutes. The cells were then centrifuged at 1000 X G for ten minutes. The supernatant liquid containing the shed histamine receptors was removed by aspiration and the cell pellet discarded.
as §1

Experiment [5] deals with histamine receptor on whole cells. The procedure: The reaction was stopped with 1N aqueous sodium hydroxide and the product formed was quantified spectrophotometrically. The total enzyme activity was determined by incubating 10 microliters of the dilutions of histamine-enzyme with the enzyme substrate for 60 minutes, stopping the reaction with lN aqueous sodium hydroxide and quantifying the product formed.

Experiment [6] relates to cell surface histamine receptors. The settings on record: phosphate-buffered saline. The procedure: as §5, §1, §3, §4

For the compound `[3H]c1nc(CCN)c([3H])[nH]1` [3H-labeled histamine, 2,5-^3 H-histamine hydrochloride], the entries for the “Average 3H Counts per minute” value in the experiment with histamine receptor [1] (control wells (nonspecific binding)) and with histamine receptor [1] (receptor wells) were 1172 Counts per minute and 7968 Counts per minute, respectively.

For `NCCc1c[nH]cn1` [Histamine, histamine], the “Percent inhibition of enzyme activity” value in experiment [2] (1 ng histamine added) is recorded as 49%; in experiment [2] (5 ng histamine added) it was 70%; in experiment [2] (10 ng histamine added) it was 79%; in experiment [2] (25 ng histamine added), 91%; in experiment [3] (histamine added 500 pg), 7%; in experiment [3] (histamine added 5 ng), 14%. In addition, the “Percent inhibition of enzyme activity” value in experiment [3] (histamine added 50 ng) was 24%; in experiment [3] (histamine added 500 ng) it was 32%; in experiment [3] (histamine added 5 g (so in the source)), 45%; in experiment [3] (histamine added 50 g (so in the source)), 69%; in experiment [6] (0.05 ng histamine added) it was 30%; in experiment [6] (0.1 ng histamine added) it was 40%. Besides, the “Percent inhibition of enzyme activity” value in experiment [6] (0.25 ng histamine added) was determined as 46%; in experiment [6] (0.5 ng histamine added), 52%; in experiment [6] (1 ng histamine added) it was 60%; in experiment [6] (5 ng histamine added), 65%; in experiment [6] (10 ng histamine added) it was 72%; in experiment [6] (25 ng histamine added) it was 79%. Besides, the Absorbance entry in the experiment with histamine receptor [4] (25 micrograms histamine per well) was “.310”; in the experiment with histamine receptor [4] (50 micrograms histamine per well) it was “.285”; in the experiment with histamine receptor [4] (75 micrograms histamine per well), “.205”; in the experiment with histamine receptor [4] (100 micrograms histamine per well), “.125”. Further, in experiment [5], the “Inhibition of receptor-bound histamine-enzyme stimulation” value is “inhibitable”. The “Effect of added histamine on the enhanced enzyme activity” value in experiment [5] (histamine added before incubation with histamine-alkaline phosphatase) is on record as “inhibited”.
